In patent US4012387A, “Benzo-[g]pyrido[2,1-b]quinazolinones” (Warner-Lambert Company, priority 1975, dated 1977):
Read-outs that look alike come from different tables or passages of the source.

Tested on: rat passive cutaneous anaphylaxis
Test: rat passive cutaneous anaphylaxis test (PCA), procedure of Herzig
Assay type: in vivo
Source text: Mansmann, Eds., John Wiley and Son, N.Y., 1975].
Effective dose 50% inhibition rat passive cutaneous anaphylaxis

[1] = effective dose 50% inhibition, rat PCA, intravenous, read-out: ED50 -PCA (rat) iv.

Row | SMILES | ED50 [1] [mg/kg] | ED50 (effective dose 50% inhibition, rat PCA, oral, read-out: ED50 -PCA (rat) po.) [mg/kg] | effectiveness compared with the commercial compound (Intal), i.v. administration (i.v., rat PCA, comparison in words) | activity in rat PCA when given intraperitonially (intraperitoneal, result in words) | ED50 (ip, effective dose 50% inhibition, rat PCA, intraperitoneal, read-out: ED50 -PCA (rat) ip.) [mg/kg] | activity in rat PCA when given orally (oral, result in words) | ED50 -PCA (rat) ip. (effective dose 50% inhibition, rat PCA, intraperitoneal) | ED50 -PCA (rat) po. (effective dose 50% inhibition, rat PCA, oral)
1 | O=C(O)c1ccc2nc3cc4ccccc4cc3c(=O)n2c1 [Example 1, 6-oxo-6H-benzo[g]pyrido[2,1-b]quinazoline-3-carboxylic acid] | 0.015 | < 0.1 | many times as effective | active | 0.015 | active | – | –
2 | O=C(O)c1cc(=O)c2c(OCC(O)COc3cccc4oc(C(=O)O)cc(=O)c34)cccc2o1 [Intal, Cromoglycate, reference compound] | 1 to 2 | – | – | – | – | – | inactive | inactive
